Assay results from US8389544B2, “Isoquinolone compounds as subtype-selective agonists for melatonin receptors MT1 and MT2” (The Hong Kong University of Science and Technology, priority 2007, dated 2013).
Like-named read-outs stand apart in the source and are kept apart here.

Key:
Format in all cases: cell-based
MT2/293 = experiment: MTT cytotoxicity assay, MT2/293 cells; settings: percentage of untreated control cells
Experimental: (§1) This assay evaluates the cytotoxic effects of the novel isoquinolone compounds based on the cellular viability under chronic treatments. Viable cells but not dead cells can turn the substrate into a colored product, which yields higher absorbance. […] A low percentage indicates low cytoviability (or high cytotoxicity).
(§2) 5. Cytotoxicity Test Using MTT Assay
(§3) Cells were seeded into clear 96-well plate at an appropriate density in 100 μl growth medium and were allowed to grow overnight. The novel isoquinolone compounds were diluted to desired concentrations using fresh growth medium, and these dilutions were used to replace the growth media in each well. After incubating for 24-96 h, 10 μl of the MTT labeling reagent (Roche) was added to each well and the cells were incubated in a CO2 incubator for 4 h. 100 μl solubilization buffer was then added into each well and incubated overnight for complete solubilization of the purple formazan crystals. […] Each condition was performed in triplicate in every experiment and the results were expressed as % of blank control±SD.

MT1/293 = experiment: MTT cytotoxicity assay, MT1/293 cells; settings: percentage of untreated control cells
Experimental: as §1, §2, §3

MT1 receptor = MT1 receptor (Homo sapiens, UniProt P48039); experiment: FLIPR Ca2+ mobilization assay, MT1; design: expressed in transfected cells; host or cells: COS-7 (monkey kidney fibroblast); settings: for logEC50 ± SEM: NSR = No significant response; for % Response of 2-IMT: relative to 2-IMT response
Sequence of MT1 receptor (P48039 whole entry): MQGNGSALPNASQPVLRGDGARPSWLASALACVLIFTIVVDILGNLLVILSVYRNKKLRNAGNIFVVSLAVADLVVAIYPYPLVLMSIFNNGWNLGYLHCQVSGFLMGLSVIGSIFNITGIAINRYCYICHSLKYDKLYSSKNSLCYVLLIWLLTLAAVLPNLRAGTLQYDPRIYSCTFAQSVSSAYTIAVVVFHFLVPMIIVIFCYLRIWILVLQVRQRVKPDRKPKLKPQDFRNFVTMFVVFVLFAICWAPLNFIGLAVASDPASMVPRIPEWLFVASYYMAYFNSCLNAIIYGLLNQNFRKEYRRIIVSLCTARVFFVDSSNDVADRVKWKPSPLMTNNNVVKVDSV
Experimental: (§4) 1. FLIPR Ca^2+ Mobilization Assay
(§5) This assay indicates the ability of the novel compounds to activate MT1 and MT2 receptors by measuring downstream events of the activated receptor, in this case intracellular calcium mobilization.
(§6) 1. Intracellular Ca^2+ Mobilization Assay Using Fluorometric Imaging Plate Reader (FLIPR®)
(§7) An intracellular calcium mobilization assay was performed to screen the isoquinolone compounds against the two melatonin receptor subtypes, MT1 and MT2 on the fluorometric imaging plate reader (FLIPR®). In order to facilitate the screening process in a high-throughput manner, chimeric G proteins with the ability to couple to a range of GPCR as well as activate intracellular Ca^2+ were employed. The melatonin receptor subtype (either MT1 or MT2) was co-expressed with the G-protein chimeras in COS-7 (monkey kidney fibroblast) cells. During the assay, cells were exposed to the novel isoquinolone compounds and the corresponding change in fluorescence was measured. Both single point and dose-dependant assays were performed for each isoquinolone compound and based on the latter a dose response curve was generated and the corresponding EC50 for each receptor subtype determined.
(§8) Specifically, COS-7 cells were seeded at a density of 20,000 cells/well into 96-well plates designed for FLIPR assays, using Opti-MEM with 10% FCS at a volume of 100 μl/well. Transfection was carried out using Lipofectamine 2000® reagent. In each well, 0.2 μg of the GPCR and G protein cDNA were diluted with 25 μl of Opti-MEM and 0.2 μl of Lipofectamine 2000® was diluted with another 25 μl of Opti-MEM. They were added to appropriate wells after the two components were mixed for 20 min.
(§9) After 48 hours of incubation post-transfection, 50 μl of the transfection medium was removed from each well followed by the labelling of transfected cells with 100 μl of 2 μM Fluo-4 in calcium containing HBSS (Hank's balanced salt solution) with 20 mM HEPES (N-[2-hydroxyethyl]piperazine—N′-[2-ethanesulfonic acid]; pH 7.5) and 2.5 mM probenecid (anion exchanger inhibitor, freshly prepared) for 1 hour at 37° C. 70 μl of 3× drugs (isoquinolinone compounds encompassing the invention) were prepared and aliquoted into the corresponding wells in the V-well drug plate. Changes in fluorescence were detected in the FLIPR 96 with an excitation wavelength of 488 nm. The background fluorescence was adjusted to the range of 8,000 to 12,000 units by altering the laser power and exposure time (typically 0.4 W and 0.4 sec, respectively) for the FLIPR setup. 50 μl of each agonist solution was added to the corresponding wells and the fluorescent emission (between 510 and 560 nm) was monitored for 3 min. Results were expressed as change in fluorescent intensity units (FIU). Concentration-response curves were generated by determining the maximal change in FIU of each data set. Numerical analysis of the statistics and EC50 (median effective concentration) values were performed on GraphPad Prism version 3.03.
(§10) Then the intracellular Ca^2+ mobilization assays using the Fluorometric Imaging Plate Reader (FLIPR®) were performed as described above.

MT2 receptor [1] = molecular target: T1, MT2 receptor (Homo sapiens, UniProt P49286); experiment: cAMP assay, MT2; design: expressed in transfected cells; host or cells: COS-7 (monkey kidney fibroblast); settings: inhibition of forskolin-stimulated cAMP production; MT2-expressing cells
T1 sequence (P49286 1-362): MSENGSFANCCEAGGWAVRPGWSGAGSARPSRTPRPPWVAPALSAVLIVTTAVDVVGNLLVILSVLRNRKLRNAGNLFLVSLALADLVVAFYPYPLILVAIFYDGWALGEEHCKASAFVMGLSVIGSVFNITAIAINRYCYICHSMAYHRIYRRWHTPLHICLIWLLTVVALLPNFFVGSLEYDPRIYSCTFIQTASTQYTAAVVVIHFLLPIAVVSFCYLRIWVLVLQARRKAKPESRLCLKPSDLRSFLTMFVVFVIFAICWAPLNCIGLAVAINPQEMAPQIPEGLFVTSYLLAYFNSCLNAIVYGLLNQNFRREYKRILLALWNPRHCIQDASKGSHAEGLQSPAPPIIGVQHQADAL

MT2 receptor [2] = molecular target: T1, MT2 receptor; experiment: FLIPR Ca2+ mobilization assay, MT2; design: expressed in transfected cells; host or cells: COS-7 (monkey kidney fibroblast); settings: for % Response of 2-IMT: relative to 2-IMT response; for agonist character / receptor subtype selectivity in words: FLIPR results, MT1 versus MT2; for Emax: read-out: % Response of 2-IMT
Experimental: as §4, §5, §6, §7, §8, §9, §10

[3] = Table 1, MT1 in COS-7 cells with chimeric G protein, log value, negative, NSR = no significant response
[4] = Table 2, MT1, log value, negative
[5] = Table 1, MT2 in COS-7 cells with chimeric G protein, log value, negative, NSR = no significant response
[6] = Table 2, MT2, log value, negative
[7] = Table 1, MT1 in COS-7 cells with chimeric G protein, log value, negative, NSR = no significant response, read-out: Log(EC50) ± SEM (converted)
[8] = Table 1, MT2 in COS-7 cells with chimeric G protein, log value, negative, NSR = no significant response, read-out: Log(EC50) ± SEM (converted)

| Structure (SMILES) | MTT Assay MT2/293 % Viability ± SEM (MT2/293) | MTT Assay MT1/293 % Viability ± SEM (MT1/293) | Log(EC50) ± SEM (MT1 receptor; [3]) | logEC50 ± SEM (MT1 receptor; [4]) | cAMP Assay MT2 % Inh (MT2 receptor [1]) | % Response of 2-IMT (MT2 receptor [2]; Table 1, MT2) | Log(EC50) ± SEM (MT2 receptor [2]; [5]) | % Resp of 2-IMT (MT2 receptor [2]; Table 2, MT2) | logEC50 ± SEM (MT2 receptor [2]; [6]) | EC50 (MT2 receptor [2]; Table 2, MT2, read-out: EC50) | % Response of 2-IMT (MT1 receptor; Table 1, MT1) | EC50 (MT1 receptor; [7]) | EC50 (MT1 receptor; Table 2, MT1, read-out: EC50) | agonist character / receptor subtype selectivity in words (MT2 receptor [2]) | EC50 (MT2 receptor [2]; [8]) | Emax (MT2 receptor [2]) | activity / efficacy at MT2 compared to 2-IMT (MT2 receptor [2]) | EC50 (MT2 receptor [2]; read-out: EC50 MT2) |
| --- | --- | --- | --- | --- | --- | --- | --- | --- | --- | --- | --- | --- | --- | --- | --- | --- | --- | --- |
| Cn1ccc2cc(OC(=O)c3ccccc3)c(OC(=O)c3ccccc3)cc2c1=O [IS039] | 117.6 ± 9.0% | 108.5 ± 3.2% | NSR | NSR | 4.2 ± 6.8% | 61.0% | −8.64 ± 0.20 | 61.0% | −8.64 ± 0.20 | 2.31 nM |  |  |  |  |  |  |  |  |
| COc1cc(COc2cc3ccn(C)c(=O)c3cc2OC)cc(OC)c1 [IS042] | 56.3 ± 1.5% | 71.6 ± 4.7% |  |  | 58.7 ± 5.8% |  |  | 84.5% |  | 0.379 nM | 49.4% | 12 nM | 12 nM | very potent full agonists with high MT2 selectivity | 0.38 nM | 84.5% |  |  |
| COc1cccc(COc2cc3ccn(C)c(=O)c3cc2OC)c1 [IS044] | 112.5 ± 3.8% | 112.6 ± 5.8% | −6.79 ± 0.17 | −6.79 ± 0.17 | 62.5 ± 4.0% | 94.9% | −8.42 ± 0.25 | 94.9% | −8.42 ± 0.25 | 3.8 nM | 54.5% |  | 161 nM | very potent full agonists with high MT2 selectivity |  |  |  |  |
| COc1cccc(COc2cc3c(=O)n(C)ccc3cc2OC)c1 [IS521] | 90.5 ± 11.7% | 89.8 ± 8.3% |  |  | 63.2 ± 4.9% |  |  | 98.9% |  | 11.4 nM | 31.8% | 1860 nM | 1860 nM | very potent full agonists with high MT2 selectivity | 11.5 nM | 98.9% |  |  |
| COc1cc(COc2cc3c(=O)n(C)ccc3cc2OC)cc(OC)c1 [IS523] | 46.2 ± 3.7% | 51.6 ± 1.1% | NSR | NSR | 50.8 ± 9.1% |  |  | 61.0% |  | 45.4 nM |  |  |  | very potent full agonists with high MT2 selectivity | 45.7 nM | 61% |  |  |
| COc1cc2ccn(C)c(=O)c2cc1OCc1ccc(C(C)(C)C)cc1 [IS526] | 24.7 ± 1.6% | 25.0 ± 4.4% | −5.35 ± 1.32 | −5.35 ± 1.32 | −63.9 ± 59.2% | 88.6% | −5.42 ± 0.76 | 88.6% | −5.42 ± 0.76 | 3770 nM | 46.2% |  | 4490 nM |  |  |  |  |  |
| COc1cccc(COc2c(OC)ccc3c(=O)n(C)ccc23)c1 [IS527] | 46.8 ± 0.2% | 57.1 ± 3.0% | NSR | NSR | 51.4 ± 12.1% |  |  | 65.9% |  | 5.78 nM |  |  |  |  |  | 65.9% | ~65% | 5.78 nM |
| COc1cc(COc2c(OC)ccc3c(=O)n(C)ccc23)cc(OC)c1 [IS528] | 42.4 ± 1.3% | 50.2 ± 5.7% | −5.15 ± 0.51 | −5.15 ± 0.51 | 49.4 ± 13.2% | 64.8% | −9.43 ± 0.75 | 64.8% | −9.43 ± 0.75 | 0.369 nM | 42.1% |  | 7140 nM |  |  |  | ~65% | 0.37 nM |
| COc1ccc2c(=O)n(C)ccc2c1OCc1ccc(C)cc1 [IS529] | 48.5 ± 1.6% | 54.9 ± 2.5% | NSR | NSR | 37.7 ± 11.9% |  |  | 53.6% |  | 65.2 nM |  |  |  | activated MT2 only | 64.6 nM | 53.6% |  |  |
